{"source": "patent US20240108637A1", "about": "“EPITE[…] AND/OR A STEROID SULFATASE INHIBITOR FOR USE IN TREATING OR IMPROVING AGE RELATED COGNITIVE IMPAIRMENT” (U[…] DE OLAVIDE, priority 2020, published 2024)", "key": {"[1]": {"system": "wild type mice injected with β-amyloid oligomers in the hippocampus", "assay": "Passive avoidance test after intrahippocampal βA oligomers infusion (acute AD model)", "assay_type": "in vivo", "text": "(§1) As STX64 ameliorated neurodegeneration in C. elegans models, we tested the effect of this drug on cognitive alterations provoked by intrahippocampal βA oligomers infusion, an acute AD mammalian model (FIG. 3i). […] To evaluate the effect of STX64 oral treatment on amyloid pathology in a chronic AD mice model, we assessed the effect of 3-4 weeks of STX64 oral treatment on amyloid deposition in the neocortex (the cerebral cortex and the hippocampus) of >15-month-old APP-PS1 mice (FIG. 4k). […] We wondered if this histological improvement correlated with amelioration of cognitive behavioural deficit. For that, we compared cognition capacities in APP-PS1 mice older than 15-month-old treated with vehicle or STX64 for 3-4 weeks.\n(§2) The first, object recognition, after training with identical objects, tests the ability to identify different objects exposed together with a familiar one. When this happens, the object discrimination index is positive and higher than 0.1. […] For this purpose, during training, the entry latency to the preferred site is established and the aversive stimulus is administered."}, "[2]": {"system": "aged mice", "assay": "Cognition of aged mice under STX64 treatment (FIG. 16-19, headline)", "assay_type": "in vivo"}, "[3]": {"system": "GMC101 strain expressing human β-amyloid in muscle", "assay": "Alzheimer's disease model: thermodependent paralysis of GMC101 strain", "assay_type": "in vivo, C. elegans", "details": "1 μg/ml, FIG. 3h, FIG. 4b", "text": "In this model, GFP-labelled dopaminergic neurons die due to α-synuclein toxicity. […] We also tested two different strains of Alzheimer's disease (AD) in worms, where immobility is caused by expression of βA protein in muscle cells."}, "[4]": {"system": "aged mice", "assay": "Object recognition test in aged mice", "assay_type": "in vivo", "experimental": "as §2"}, "[5]": {"system": "APP-PS1 mice", "assay": "Passive avoidance test in APP-PS1 mice", "assay_type": "in vivo", "details": "APP-PS1 mice older than 15-month-old; 3-4 weeks oral", "text": "as §1, §2"}, "[6]": {"system": "aged mice", "assay": "Passive avoidance test in aged mice (STM and LTM)", "assay_type": "in vivo", "experimental": "as §2\nDuring short- and long-term memory tests (STM and LTM) if the mouse associated the preferred place to the aversive stimulus, the input latency increases with respect to training."}, "[7]": {"system": "polyglutamine repeats fused to YFP (Q40 background, strain AM141)", "assay": "Huntington neurodegenerative model: number of polyglutamine aggregates", "assay_type": "in vivo, C. elegans", "details": "1 μg/ml, 5-day old worms"}, "[8]": {"system": "daf-2(e1370)", "assay": "Developmental arrest (dauer / L1) at 25° C.", "assay_type": "in vivo, C. elegans", "details": "daf-2(e1370) background", "experimental": "Worms were growth at 16° C. until L4, then shifted to 25° C. considering this Day 0 of adulthood. The pumping was counted under the Leica stereoscope at 100× magnification for 30 seconds. Data display from two independent biological assays (n=30 per day). Two-tailed Mann-Whitney t-test, ***p=0.0006. e Thrashing in sul-2(gk187) is similar to wild type but is slightly lower in sul-2 (pv17) at 25° C. on day 1 of adulthood. On day 6 at 25° of adulthood, the trashing on sul-2(gk187) is lower than wild type and sul-(pv17), with no differences among these last strains. The population of sul-2(gk17) at day 6 seems to distribute into two different populations, one with almost no thrashing and other with values similar to wild type a sul-2(pv17). […] In this condition, all animals from daf-2(e1370); sul-2(pv17) double mutants arrest at L1 stage. Similarly, more than 50% of animals arrest in L1 stage in daf-2(m577); sul-2(pv17) background, while none of the single mutants show this phenotype. i Example of sul-2(pv17) larvae, dauer larval arrest of daf-2(e1370) or L1 arrest of daf-2(e1370); sul-2 (pv17) and daf-2(e1370); sul-2(gk187) at 25° C. Animals were grown up to L4 at 16° C., then shifted at 25° C., progeny were scored or imaged after 72 hours. Photographs were taken in a Leica scope."}, "[9]": {"system": "C. elegans", "assay": "Lifespan assays in C. elegans", "assay_type": "in vivo, Caenorhabditis elegans", "experimental": "F2 L4 animals were shifted to 25° C. (t=0). ES treatment started at L4 stage, control and treated plates were prepared fresh and animals transferred each three days until death. Animals lost or dead by non-physiological causes were censured. Survival curves were generated using the product-limit method of Kaplan and Meier. The log-rank (Mantel-Cox) test was used to evaluate differences in survival and […] lower than 0.05 were considered significant."}, "[10]": {"system": "NL5901 strain expressing α-synuclein in muscle cells", "assay": "Parkinson's disease model: mobility of NL5901 strain", "assay_type": "in vivo, C. elegans", "details": "1 μg/ml", "text": "We have studied the anatomical location of sul-2 expression from an extrachromosomal array and in single-copy insertion transgenic strains. […] There is no detectable expression in the germline in any transgenic strains (FIG. 2n and FIG. 10, 11a-b). ASE neurons are responsible for the attractive response of Na+ and Cl−, among others. Defects in odour sensing affect longevity. Therefore, we tested the ability of sul-2 mutants to respond to Cl− or Na+ and found no differences compared to wild type animals (FIG. 11c-d). Furthermore, sul-2 mutation increases the longevity of daf-10(m79), a long-lived mutant defective in sensory cilia formation25 (FIG. 11e). […] Reduction of sul-2 improves aging associated diseases in C. elegans Aging is considered the main risk factor for the onset of neurodegenerative disorders like Parkinson, Huntington, or Alzheimer's diseases. These disorders are caused by the progressive decline of proteostasis, which results in protein aggregation that compromises cellular functions and finally causes cell death. Germline-deficient C. elegans delay the symptoms derived from the proteotoxicity of ectopically expressed human β-amyloid (βA). We tested if sul-2 mutations or STX64 treatment improves the symptoms of C. elegans models for neurodegenerative diseases."}, "[11]": {"details": "aged mice, vs vehicle-treated, FIG. 21, listed as STX"}}, "note": "Entries after “also recorded” stand apart in the source; their conditions may differ.", "data": [{"smiles": "NS(=O)(=O)Oc1ccc2c3c(c(=O)oc2c1)CCCCC3", "note": "[STX64]", "values": [{"measurement": "cognitive deficiencies, passive avoidance test", "setting": "[1]; local (intrahippocampal) administration", "value": "reverted the cognitive deficiencies"}, {"measurement": "cognitive deficiencies, passive avoidance test", "setting": "[1]; systemic (oral) administration", "value": "reverted the cognitive deficiencies"}, {"measurement": "cognition", "setting": "[2]; 1-month treatment in 18 months old mice, 19 months when assayed, FIG. 18", "value": "improves cognition"}, {"measurement": "cognition", "setting": "[2]; 3-month treatment in 18 months old mice, 21 months when assayed, FIG. 19", "value": "improves cognition"}, {"measurement": "cognition", "setting": "[2]; 3 months treatment in 15 months old mice, FIG. 16", "value": "improves cognition"}, {"measurement": "cognition", "setting": "[2]; 6 months treatment in 15 months old mice, 21 months when assayed, FIG. 17", "value": "improves cognition"}, {"measurement": "paralysis phenotype", "setting": "[3]", "value": "the paralysis phenotype is ameliorated; also recorded: delayed paralysis"}, {"measurement": "object recognition", "setting": "[4]; 3-month treatment in 18 months old mice, FIG. 19B", "value": "is improved"}, {"measurement": "object recognition", "setting": "[4]; 3 months treatment in 15 months old mice, FIG. 16B", "value": "is improved"}, {"measurement": "object recognition", "setting": "[4]; 6 months treatment in 15 months old mice, FIG. 17B", "value": "is improved"}, {"measurement": "learning and memory, object recognition test", "setting": "[4]; [11]", "value": "showed significantly both learning (STM) and ability to store information (memory); also recorded: significant improvement in both learning (STM) and ability to store information (memory)"}, {"measurement": "cognitive deficiencies, passive avoidance test", "setting": "[5]", "value": "completely reverted cognitive deficiencies"}, {"measurement": "short term and long-term memory in passive avoidance test", "setting": "[6]; 1-month treatment in 18 months old mice, FIG. 18B", "value": "significant improvement"}, {"measurement": "learning (STM) and memory (LTM), passive avoidance test", "setting": "[6]; [11]", "value": "showed significantly both learning (STM) and ability to store information (memory); also recorded: significant improvement in both learning (STM) and ability to store information (memory)"}, {"measurement": "number of polyglutamine aggregates", "setting": "[7]", "value": "aggregates are reduced; also recorded: reduced the number of aggregates"}, {"measurement": "L1 arrest", "setting": "[8]", "value": "phenocopies other sul-2 mutant phenotypes; also recorded: mainly arrests in L1"}, {"measurement": "L1 arrest", "setting": "[8]; listed as STX 64", "value": "increase of L1 arrest"}, {"measurement": "dependence of the increase of longevity on daf-36", "setting": "[9]; daf-36 mutant, 1 μg/ml, FIG. 2m", "value": "daf-36 is necessary for the increase of longevity; also recorded: DAF-36 is required for the longevity"}, {"measurement": "lifespan", "setting": "[9]; sul-2 (gk187) deletion background, 1 μg/ml, UV-killed E. coli, FIG. 1D", "value": "does not further increase the longevity"}, {"measurement": "lifespan", "setting": "[9]; wild type animals, 1 μg/ml, UV-killed E. coli, FIG. 1D", "value": "increases lifespan"}, {"measurement": "longevity", "setting": "[9]; wild type animals, text statement (FIG. 1d, FIG. 7a-c)", "value": "increase in longevity; also recorded: extends lifespan"}, {"measurement": "lifespan", "setting": "[9]; wild type, non-UV E. coli, FIG. 7a", "value": "increases lifespan of wild type"}, {"measurement": "mobility with age", "setting": "[10]", "value": "reduce mobility with age at a slower rate; also recorded: significantly improved mobility; also recorded: protective effect"}]}]}
